The values below come from US20180028553A1, “USE OF STING AGONIST AS CANCER TREATMENT” (The University of Chicago, priority 2013, published 2018).

The subject of data set [1] is B16.F10 tumors. The data set is described as follows: Intratumoral treatment of established B16.F10 tumors. It counts as in vivo, mouse. The settings on record: for effect on tumor growth: WT C57BL/6 mice, three IT injections over a one-week period; for injection site reactogenicity: three IT injections. As to the method:
(§1) In vivo tumor experiments. 10^6 of B16-SIY tumor cells, 5×10^4 B16.F10 tumor cells, 10^5 4T1 and CT26, or 10^6 other tumor cells were injected s.c. in 100 μl DPBS or HBSS on the right flank of mice. Following tumor implantation, mice were randomized into treatment groups. […] Measurements of tumors were performed twice per week using calipers, and the tumor volume was calculated with the formula: V=(length×width^2)/2. In some experiments, tumor-free survivors were rechallenged with tumor cells on the opposite flank several weeks after the injection of the primary tumor. Naïve mice were used as controls. For the contralateral experiments, mice were implanted on both flanks and only one tumor was treated. For the B16 melanoma lung metastasis experiments, mice were implanted on the flank with 5×10^4 cells B16.F10 on day 0, and then injected intravenously with 1×10^5 cells on day 7. Lungs were harvested on day 28. Administration of compounds, measurements of tumors and counting of lung tumors were performed in a blinded fashion.

The target in data set [2] is T1, hSTING^REF (Homo sapiens, UniProt Q86WV6).
T1 construct: expressing each of the full length hSTING variants; expressed in transfected cells; host or cells: HEK 293T (deficient in endogenous STING), MSCV2.2 retroviral transduction
T1 sequence (Q86WV6 whole entry): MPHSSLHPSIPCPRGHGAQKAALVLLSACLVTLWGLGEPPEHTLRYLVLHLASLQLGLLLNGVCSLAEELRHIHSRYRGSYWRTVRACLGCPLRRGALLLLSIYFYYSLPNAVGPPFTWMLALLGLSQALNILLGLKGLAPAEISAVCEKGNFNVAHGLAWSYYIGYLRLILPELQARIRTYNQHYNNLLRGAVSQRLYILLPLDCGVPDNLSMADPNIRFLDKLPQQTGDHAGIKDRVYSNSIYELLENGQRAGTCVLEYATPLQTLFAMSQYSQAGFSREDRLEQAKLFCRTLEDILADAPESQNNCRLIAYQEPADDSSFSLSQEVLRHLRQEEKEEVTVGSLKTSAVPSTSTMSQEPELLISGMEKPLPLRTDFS
The data set is described as follows: IFN-β luciferase reporter assay in HEK 293T cells expressing hSTING REF. It is filed as cell-based. The settings on record: 10 μM CDN, 6 hours. As to the method:
(§2) Luciferase Assay. […] After 20 min, stimulation mixtures were removed and normal media was added. After a total of 6 hours, cell lysates were prepared and reporter gene activity measured using the Dual Luciferase Assay System (Promega) on a Spectramax M3 luminometer.
On the technique in general: Reporter assays use an easily measured gene product as a stand-in for the process of interest.

Data set [3] deals with STING pathway (TBK1, IRF3 phosphorylation). The data set is described as follows: Western blot of pTBK1 and pIRF3 in macrophages and BM-DCs after STING agonist. It is filed as cell-based, mouse. The settings on record: WT macrophages; DMXAA 50 μg/ml or ML RR-S2 CDA 50 μM. How it is done: DMXAA for the same time-points. Proteins were extracted with Triton-X buffer (150 mM sodium chloride, 50 mM Tris, 1% Triton-X, pH 8.0) with proteinase inhibitors (Thermo scientific) and phosphatase inhibitors (Sigma). 30 μg of protein was electrophoresed in 10% SDS-PAGE gels and transferred onto Immobilon-FL membranes (Millipore). Blots were incubated with antibodies specific for phosphorylated TBK1 (Ser172), phosphorylated IRF3 (Ser396), total TBK1, STING and GAPDH (Cell Signaling) or total IRF3 (Invitrogen). Proteins from HEK 293T lines stably expressing STING were extracted with M-PER (Thermo Scientific). 6 μg of protein was loaded onto a 4-12% MES NuPAGE gel (Life Technologies), transferred to nitrocellulose, and probed with anti-HA antibody (Santa Cruz). Anti-rabbit IRDye 680RD label secondary antibody was used for visualization of bands with the Odyssey Imaging system (LI-COR).
A general note: Immunoblotting shows a protein as a band on a membrane.

The subject of data set [4] is 4T-1 tumors. Put plainly: Intratumoral treatment of 4T-1 tumors. It is filed as in vivo, mouse. As to the method: as §1
For data set [5], the system named is CT26 colon carcinoma. The data set is described as follows: Intratumoral treatment of CT26 colon carcinoma. It counts as in vivo, mouse. As to the method:
as §1

Data set [6] deals with B16.F10 lung metastases. Put plainly: B16 melanoma lung metastasis experiment. The settings on record: flank tumor treated IT, ML RR-S2 CDA 50 μg versus DMXAA 150 μg. It counts as in vivo, mouse. As to the method: as §1
In data set [7] the test system is CT26 rejection antigen AH1. Put plainly: IFN-γ ELISPOT against AH1 in CT26-bearing mice. The settings on record: 21 days post-implantation. It counts as in vivo, mouse. As to the method: IFN-γ ELISPOT and SIY-pentamer staining. […] […] Spots were developed using the BD mouse IFN-γ kit according to the manufacturer's instructions and the number of spots was measured using an Immunospot Series 3 Analyzer and analyzed using ImmunoSpot software (Cellular Technology Ltd). For SIY-pentamer staining, splenocytes were preincubated for 15 min with anti-CD16/32 monoclonal antibody (93) to block potential nonspecific binding, and labeled with PE-MHC class I pentamer (Proimmune) consisting of murine H-2K^b complexed to […] (SIY) peptide, anti-TCRβ-AF700 (H57-597), anti-CD8-Pacific Blue (53-6.7), anti-CD4-Pacific Orange (RM4-5) (all antibodies from BioLegend) and the Fixable Viability Dye eFluor 450 (eBioscience). Stained cells were analyzed using LSR II cytometer with FACSDiva software (BD). Data analysis was conducted with FlowJo software (Tree Star).

For data set [8], the system named is five hSTING alleles (WT, REF, HAQ, AQ and Q). The data set is described as follows: IFN-β luciferase reporter assay in HEK 293T cells expressing hSTING variants. It counts as cell-based, human. The settings on record: 10 μM CDN, 6 hours. As to the method:
as §2

In data set [9] the test system is murine bone marrow macrophages (BMMs). Put plainly: qRT-PCR of IFN-β and cytokines in bone marrow macrophages stimulated with CDNs. It is filed as cell-based, mouse. The settings on record: WT C57BL/6 BMMs, 5 μM, 6 hours; compared to ML-cGAMP, poly I:C and LPS on a molar equivalent basis. As to the method: WT BMM were stimulated with CDN at 5 μM in HBSS with the addition of Effectene (Qiagen) transfection reagent (per kit protocol). […] After a 6 hr incubation, cells were harvested and assessed by real-time qRT-PCR for gene expression of IFN-β1, MCP-1, TNF-α) and IL-6 using the PrimePCR RNA purification and cDNA analysis system, and run on the CFX96 gene cycler (BioRad).
In general terms: Quantitative PCR measures a nucleic acid by following its amplification.

[10] abbreviates: BALB/c mice, three IT doses of 50 μg.
[11] abbreviates: bilateral tumors, IT injection into one tumor.
[12] abbreviates: mice cured of their primary tumor.

Take `Nc1ncnc2c1ncn2C1OC2COP(=O)(O)OC3C(O)C(COP(=O)(O)OC2C1O)OC3n1cnc2c(N)ncnc21` (stereo not shown) [ML-CDA]: the “effect on tumor growth” value in [1] is “modest effects on tumor growth”.

As to `Nc1nc2c(ncn2C2OC3COP(=O)(O)OC4C(O)C(COP(=O)(O)OC3C2O)OC4n2cnc3c(=O)[nH]c(N)nc32)c(=O)[nH]1` (stereo not shown) [ML-CDG], the “effect on tumor growth” value in [1] is listed as “modest effects on tumor growth”.

As to `Nc1ncnc2c1ncn2[C@@H]1O[C@@H]2COP(=O)(O)O[C@H]3[C@@H](O)[C@H](n4cnc5c(N)ncnc54)O[C@@H]3COP(=O)(O)O[C@H]2[C@H]1O` [CDA], the IFN-β reporter responsiveness result in data set [2] is “responded poorly”.

Consider `Nc1ncnc2c1ncn2[C@@H]1O[C@@H]2COP(O)(=S)O[C@@H]3C(O)[C@@H](COP(O)(=S)O[C@H]2[C@H]1O)O[C@H]3n1cnc2c(N)ncnc21` (stereo partly shown) [ML RR-S2 CDA, dithio-(Rp, Rp)-[cyclic[A(2′,5′)pA(3′,5′)p]]], for which, in [3], the “phosphorylation of TBK1 and IRF3” value is “induce phosphorylation of TBK1 and IRF3”. In addition, the “potency compared to CpG-based TLR9 agonists and multiple other TLR agonists” value in [1] (given IT at the same doses (50 μg)) was “significantly increased potency”. The injection site reactogenicity result in [1] was “no injection site reactogenicity”. In addition, the tumor regression result in [4] (setting [10]) was “significant and durable tumor regression”; in data set [5] (setting [10]), “significant and durable tumor regression”. The “regression of the contralateral untreated tumor” value in data set [4] (setting [11]) and in data set [5] (setting [11]) was “significant regression of the contralateral untreated tumor” in each case. Moreover, the resistance to re-challenge entry in data set [4] (setting [12]) and in [5] (setting [12]) was “completely resistant to re-challenge” each time. Moreover, the “inhibition of growth of distant lung metastases” value in [6] was “more significant inhibition of growth of distant lung metastases than DMXAA”. In addition, the “immune responses against AH1 (IFN-γ ELISPOT)” value in data set [7] is on record as “improved immune responses”. Further, the IFN-β reporter activation entry in data set [8] is “potently activated all five hSTING alleles”. For the same compound, in data set [9], the “expression of pro-inflammatory cytokines (IFN-β)” value is “highest expression of pro-inflammatory cytokines”.

On to `Nc1nc2c(ncn2[C@@H]2O[C@@H]3COP(=O)(O)O[C@H]4[C@@H](O)[C@H](n5cnc6c(=O)[nH]c(N)nc65)O[C@@H]4COP(=O)(O)O[C@H]3[C@H]2O)c(=O)[nH]1` [CDG], for which, in data set [2], the IFN-β reporter responsiveness entry is on record as “responded poorly”.

For the compound `Nc1nc2c(ncn2[C@@H]2O[C@@H]3CO[P@@](=O)(S)O[C@@H]4[C@H](O)[C@@H](CO[P@@](=O)(S)O[C@H]3[C@H]2O)O[C@H]4n2cnc3c(=O)[nH]c(N)nc32)c(=O)[nH]1` [ML RR-S2 CDG], the “efficacy at lower dose levels” value in data set [1] (lower dose levels) is recorded as “not efficacious”. The therapeutic index entry in data set [1] (mouse, in vivo) is “narrow therapeutic index”. Moreover, the injection site reactogenicity entry in data set [1] is on record as “reactogenic”. Moreover, in data set [8], the IFN-β reporter activation result is listed as “potently activated all five hSTING alleles”. Also, the “expression of pro-inflammatory cytokines (IFN-β)” value in data set [9] is on record as “highest expression of pro-inflammatory cytokines”.
